The test has as its system HCV genotype-1a variant with glutamine 30 changed to glutamate in the NS5A protein. The test is classed as cell-based. To be noted: test compound titrated with BMS-790052 fixed at 200 nM; genotype 1a Q30E replicon. Summed up:
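Synergy was assessed by combining several fixed amounts of an NS5A-targeting compound with a titration of the second compound of interest.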
For orientation: A replicon is a self-replicating genome or part of one, used to study replication in cells.

For `COc1ccccc1C(O)CC(=O)N[C@H](c1nc(-c2ccc(-c3ccc(-c4c[nH]c([C@@H](NC(=O)C5(C(O)c6ccccc6OC)CC5)C(C)(C)C)n4)cc3)cc2)c[nH]1)C(C)(C)C` (single isomer, unassigned) [Compound N-135A], the “Fold-Synergistic 1a (Q30E)” value is more than 100 fold. For `COc1ccccc1C(O)CC(=O)N[C@H](c1nc(-c2ccc(-c3ccc(-c4c[nH]c([C@@H](NC(=O)C5(C(O)c6ccccc6OC)CC5)C(C)(C)C)n4)cc3)cc2)c[nH]1)C(C)(C)C` (single isomer, unassigned) [Compound N-135B], the “Fold-Synergistic 1a (Q30E)” value is recorded as more than 100 fold.

`COc1ccccc1C(O)CC(=O)N[C@H](c1nc(-c2ccc(-c3ccc(-c4c[nH]c([C@@H](NC(=O)C5(C(O)c6ccccc6OC)CC5)C(C)(C)C)n4)cc3)cc2)c[nH]1)C(C)(C)C` (single isomer, unassigned) [Compound N-135C]: the “Fold-Synergistic 1a (Q30E)” value is reported as more than 100 fold. Turning to `COC(c1ccccc1)C1(C(=O)N[C@H](c2nc(-c3ccc(-c4ccc(-c5c[nH]c([C@@H](NC(=O)C6(C(OC)c7ccccc7)CC6)C(C)(C)C)n5)cc4)cc3)c[nH]2)C(C)(C)C)CC1` (single isomer, unassigned) [Compound N-137A], the “Fold-Synergistic 1a (Q30E)” value was more than 100 fold. Take `COC(c1ccccc1)C1(C(=O)N[C@H](c2nc(-c3ccc(-c4ccc(-c5c[nH]c([C@@H](NC(=O)C6(C(OC)c7ccccc7)CC6)C(C)(C)C)n5)cc4)cc3)c[nH]2)C(C)(C)C)CC1` (single isomer, unassigned) [Compound N-137B]: the “Fold-Synergistic 1a (Q30E)” value is more than 100 fold. Then `COC(c1ccccc1)C1(C(=O)N[C@H](c2nc(-c3ccc(-c4ccc(-c5c[nH]c([C@@H](NC(=O)C6(C(OC)c7ccccc7)CC6)C(C)(C)C)n5)cc4)cc3)c[nH]2)C(C)(C)C)CC1` (single isomer, unassigned) [Compound N-137C], with more than 100 fold. `CC(O)(CF)C(=O)N[C@H](c1nc(-c2ccc(-c3ccc(-c4c[nH]c([C@@H](NC(=O)C(C)(O)CF)C(C)(C)C)n4)cc3)cc2)c[nH]1)C(C)(C)C` (single isomer, unassigned) [Compound N-139A]: the “Fold-Synergistic 1a (Q30E)” value is more than 100 fold. As to `CC(O)(CF)C(=O)N[C@H](c1nc(-c2ccc(-c3ccc(-c4c[nH]c([C@@H](NC(=O)C(C)(O)CF)C(C)(C)C)n4)cc3)cc2)c[nH]1)C(C)(C)C` (single isomer, unassigned) [Compound N-139B], the “Fold-Synergistic 1a (Q30E)” value was more than 100 fold. Consider `CC(O)(CF)C(=O)N[C@H](c1nc(-c2ccc(-c3ccc(-c4c[nH]c([C@@H](NC(=O)C(C)(O)CF)C(C)(C)C)n4)cc3)cc2)c[nH]1)C(C)(C)C` (single isomer, unassigned) [Compound N-139C], for which the “Fold-Synergistic 1a (Q30E)” value is more than 100 fold.

On to `CC(C)(C(=O)N[C@H](c1nc(-c2ccc(-c3ccc(-c4c[nH]c([C@@H](NC(=O)C(C)(C)C(O)C5CCC(F)(F)CC5)C(C)(C)C)n4)cc3)cc2)c[nH]1)C(C)(C)C)C(O)C1CCC(F)(F)CC1` (single isomer, unassigned) [Compound N-143A], for which the “Fold-Synergistic 1a (Q30E)” value is reported as more than 100 fold.

Consider `CC(C)(C(=O)N[C@H](c1nc(-c2ccc(-c3ccc(-c4c[nH]c([C@@H](NC(=O)C(C)(C)C(O)C5CCC(F)(F)CC5)C(C)(C)C)n4)cc3)cc2)c[nH]1)C(C)(C)C)C(O)C1CCC(F)(F)CC1` (single isomer, unassigned) [Compound N-143B], for which the “Fold-Synergistic 1a (Q30E)” value was more than 100 fold. Take `CC(C)(C(=O)N[C@H](c1nc(-c2ccc(-c3ccc(-c4c[nH]c([C@@H](NC(=O)C(C)(C)C(O)C5CCC(F)(F)CC5)C(C)(C)C)n4)cc3)cc2)c[nH]1)C(C)(C)C)C(O)C1CCC(F)(F)CC1` (single isomer, unassigned) [Compound N-143C]: the “Fold-Synergistic 1a (Q30E)” value is given as more than 100 fold. As for `CC(C)(C(=O)N[C@H](c1nc(-c2ccc(-c3ccc(-c4c[nH]c([C@@H](NC(=O)C(C)(C)C(O)C5CC(F)(F)C5)C(C)(C)C)n4)cc3)cc2)c[nH]1)C(C)(C)C)C(O)C1CC(F)(F)C1` (single isomer, unassigned) [Compound N-144A], the figure is more than 100 fold; as for `CC(C)(C(=O)N[C@H](c1nc(-c2ccc(-c3ccc(-c4c[nH]c([C@@H](NC(=O)C(C)(C)C(O)C5CC(F)(F)C5)C(C)(C)C)n4)cc3)cc2)c[nH]1)C(C)(C)C)C(O)C1CC(F)(F)C1` (single isomer, unassigned) [Compound N-144B], more than 100 fold; as for `CC(C)(C(=O)N[C@H](c1nc(-c2ccc(-c3ccc(-c4c[nH]c([C@@H](NC(=O)C(C)(C)C(O)C5CC(F)(F)C5)C(C)(C)C)n4)cc3)cc2)c[nH]1)C(C)(C)C)C(O)C1CC(F)(F)C1` (single isomer, unassigned) [Compound N-144C], more than 100 fold. Take `CC(C)[C@H](NC(=O)C(C)(C)C(O)C1CC(F)(F)C1)c1nc(-c2ccc(-c3ccc(-c4c[nH]c([C@@H](NC(=O)C(C)(C)C(O)C5CC(F)(F)C5)C(C)C)n4)cc3)cc2)c[nH]1` (single isomer, unassigned) [Compound N-145A]: the “Fold-Synergistic 1a (Q30E)” value is given as more than 100 fold.

With `CC(C)[C@H](NC(=O)C(C)(C)C(O)C1CC(F)(F)C1)c1nc(-c2ccc(-c3ccc(-c4c[nH]c([C@@H](NC(=O)C(C)(C)C(O)C5CC(F)(F)C5)C(C)C)n4)cc3)cc2)c[nH]1` (single isomer, unassigned) [Compound N-145B], the “Fold-Synergistic 1a (Q30E)” value is more than 100 fold. As for `CC(C)[C@H](NC(=O)C(C)(C)C(O)C1CC(F)(F)C1)c1nc(-c2ccc(-c3ccc(-c4c[nH]c([C@@H](NC(=O)C(C)(C)C(O)C5CC(F)(F)C5)C(C)C)n4)cc3)cc2)c[nH]1` (single isomer, unassigned) [Compound N-145C], the figure is more than 100 fold; as for `CC1(C(O)C(C)(C)C(=O)N[C@H](c2nc(-c3ccc(-c4ccc(-c5c[nH]c([C@@H](NC(=O)C(C)(C)C(O)C6(C)CC6)C(C)(C)C)n5)cc4)cc3)c[nH]2)C(C)(C)C)CC1` (single isomer, unassigned) [Compound N-151A], more than 100 fold; as for `CC1(C(O)C(C)(C)C(=O)N[C@H](c2nc(-c3ccc(-c4ccc(-c5c[nH]c([C@@H](NC(=O)C(C)(C)C(O)C6(C)CC6)C(C)(C)C)n5)cc4)cc3)c[nH]2)C(C)(C)C)CC1` (single isomer, unassigned) [Compound N-151B], more than 100 fold. With `CC1(C(O)C(C)(C)C(=O)N[C@H](c2nc(-c3ccc(-c4ccc(-c5c[nH]c([C@@H](NC(=O)C(C)(C)C(O)C6(C)CC6)C(C)(C)C)n5)cc4)cc3)c[nH]2)C(C)(C)C)CC1` (single isomer, unassigned) [Compound N-151C], the “Fold-Synergistic 1a (Q30E)” value is recorded as more than 100 fold. Consider `CC(O)C1(C(=O)N[C@H](c2nc(-c3ccc(-c4ccc(-c5c[nH]c([C@@H](NC(=O)C6(C(C)O)CCCCC6)C(C)(C)C)n5)cc4)cc3)c[nH]2)C(C)(C)C)CCCCC1` (single isomer, unassigned) [Compound N-152B], for which the “Fold-Synergistic 1a (Q30E)” value is more than 100 fold. Regarding `CC(O)C1(C(=O)N[C@H](c2nc(-c3ccc(-c4ccc(-c5c[nH]c([C@@H](NC(=O)C6(C(C)O)CCCCC6)C(C)(C)C)n5)cc4)cc3)c[nH]2)C(C)(C)C)CCCCC1` (single isomer, unassigned) [Compound N-152C], the “Fold-Synergistic 1a (Q30E)” value is on record as more than 100 fold. Regarding `COC(CO)(CC(C)C)C(=O)N[C@H](c1nc(-c2ccc(-c3ccc(-c4c[nH]c([C@@H](NC(=O)C(CO)(CC(C)C)OC)C(C)(C)C)n4)cc3)cc2)c[nH]1)C(C)(C)C` (single isomer, unassigned) [Compound N-160A], the “Fold-Synergistic 1a (Q30E)” value is more than 100 fold.

`COC(CO)(CC(C)C)C(=O)N[C@H](c1nc(-c2ccc(-c3ccc(-c4c[nH]c([C@@H](NC(=O)C(CO)(CC(C)C)OC)C(C)(C)C)n4)cc3)cc2)c[nH]1)C(C)(C)C` (single isomer, unassigned) [Compound N-160B]: the “Fold-Synergistic 1a (Q30E)” value was more than 100 fold. As to `COC(CO)(CC(C)C)C(=O)N[C@H](c1nc(-c2ccc(-c3ccc(-c4c[nH]c([C@@H](NC(=O)C(CO)(CC(C)C)OC)C(C)(C)C)n4)cc3)cc2)c[nH]1)C(C)(C)C` (single isomer, unassigned) [Compound N-160C], the “Fold-Synergistic 1a (Q30E)” value was more than 100 fold.

In the case of `CC(C)(C)OC(=O)NC1(C(=O)N[C@H](c2nc(-c3ccc(-c4ccc(-c5c[nH]c([C@@H](NC(=O)C6(NC(=O)OC(C)(C)C)CC6(F)F)C(C)(C)C)n5)cc4)cc3)c[nH]2)C(C)(C)C)CC1(F)F` (single isomer, unassigned) [Compound W-13], the “Fold-Synergistic 1a (Q30E)” value is given as more than 100 fold.

Take `CC(C)(C)OC(=O)NC1(C(=O)N[C@H](c2nc(-c3ccc(-c4ccc(-c5c[nH]c([C@@H](NC(=O)C6(NC(=O)OC(C)(C)C)CC6(F)F)C(C)(C)C)n5)cc4)cc3)c[nH]2)C(C)(C)C)CC1(F)F` (single isomer, unassigned) [Compound W-14]: the “Fold-Synergistic 1a (Q30E)” value was more than 100 fold.

In the case of `CC(C)(C)OC(=O)NC1(C(=O)N[C@H](c2nc(-c3ccc(-c4ccc(-c5c[nH]c([C@@H](NC(=O)C6(NC(=O)OC(C)(C)C)CC6(F)F)C(C)(C)C)n5)cc4)cc3)c[nH]2)C(C)(C)C)CC1(F)F` (single isomer, unassigned) [Compound W-15], the “Fold-Synergistic 1a (Q30E)” value is more than 100 fold.

For the compound `CC(C)(C)OC(=O)NC1CCCCC1C(=O)N[C@H](c1nc(-c2ccc(-c3ccc(-c4c[nH]c([C@@H](NC(=O)C5CCCCC5NC(=O)OC(C)(C)C)C(C)(C)C)n4)cc3)cc2)c[nH]1)C(C)(C)C` (single isomer, unassigned) [Compound W-23A], the “Fold-Synergistic 1a (Q30E)” value is reported as more than 100 fold. Consider `CC(C)(C)OC(=O)NC1CCCCC1C(=O)N[C@H](c1nc(-c2ccc(-c3ccc(-c4c[nH]c([C@@H](NC(=O)C5CCCCC5NC(=O)OC(C)(C)C)C(C)(C)C)n4)cc3)cc2)c[nH]1)C(C)(C)C` (single isomer, unassigned) [Compound W-23B], for which the “Fold-Synergistic 1a (Q30E)” value is more than 100 fold. `CC(C)(C)OC(=O)NC1CCCCC1C(=O)N[C@H](c1nc(-c2ccc(-c3ccc(-c4c[nH]c([C@@H](NC(=O)C5CCCCC5NC(=O)OC(C)(C)C)C(C)(C)C)n4)cc3)cc2)c[nH]1)C(C)(C)C` (single isomer, unassigned) [Compound W-23C]: the “Fold-Synergistic 1a (Q30E)” value is given as more than 100 fold.

These data come from patent US20160158200A1, “Combinations of Hepatitis C Virus Inhibitors” (priority 2013, published 2016).
